Reference: PMC7029851, “Antibacterial activity of novel dual bacterial DNA type II topoisomerase inhibitors” (PLoS ONE, 2020)
Counter-ions that a name gives are not always drawn.

Columns and labels:
[1] = system: S. aureus clinical isolates (n = 10); experiment: microbe, parasite or virus in culture; type: cell-based, Staphylococcus aureus; details: S. aureus MDR clinical isolates (n = 10); for MIC50 / MIC90: Staphylococcus aureus; for MIC50: read-out: MIC50; for MIC90: read-out: MIC90
Protocol: (§1) The bacterial reference strains used in this study were purchased from ATCC (American Type Culture Collection) via LGC Standards (Middlesex, UK). […] Clinical MDR isolates were provided by Aptuit, the IHMA Europa Sàrl repository (Epalinges, Switzerland) and the Statens Serum Institute (Copenhagen, Denmark).
(§2) MICs were determined by the broth microdilution method (the agar dilution method was used only for N. gonorrhoeae) according to CLSI guidelines.
(§3) The results obtained using clinical isolates are reported as MIC50 and MIC90 values.

A. baumannii ATCC 19606 = experiment: MIC, broth microdilution; type: cell-based; details: Acinetobacter baumannii, ATCC19606; A. baumannii ATCC 19606, ciprofloxacin-susceptible
Protocol: as §2

S. pyogenes APV00083 = experiment: MIC, broth microdilution; type: cell-based; details: Streptococcus pyogenes; S. pyogenes APV00083, ciprofloxacin-susceptible
Protocol: as §2

S. pyogenes APV00074 = experiment: MIC, broth microdilution; type: cell-based; details: Streptococcus pyogenes; S. pyogenes APV00074, ciprofloxacin-susceptible
Protocol: as §2

A. baumannii APV00473 = experiment: MIC, broth microdilution; type: cell-based; details: Acinetobacter baumannii; A. baumannii APV00473, ciprofloxacin-resistant
Protocol: as §2

E. coli 4SI = experiment: MIC, broth microdilution; type: cell-based; details: Escherichia coli, ciprofloxacin-resistant
Protocol: as §2

C. difficile ATCC 700057 = experiment: MIC, broth microdilution; type: cell-based, Clostridium difficile; details: Clostridioides difficile, ATCC700057
Protocol: MICs were determined by the broth microdilution method (the agar dilution method was used only for N. gonorrhoeae) according to CLSI guidelines. […] The MIC values of antibiotics used in clinical practice were interpreted according to the susceptibility interpretive criteria reported in the appropriate CLSI Tables (M100-S25, CLSI, 2015).

[2] = system: A. baumannii clinical isolates (n = 10); experiment: microbe, parasite or virus in culture; type: cell-based, Acinetobacter baumannii; details: for MIC50 / MIC90: Acinetobacter baumannii
Protocol: as §1, §2, §3

[3] = system: C. difficile clinical isolates (n = 21); experiment: MIC, multidrug-resistant clinical isolates; type: cell-based, Clostridium difficile; details: Clostridioides difficile, C. difficile clinical isolates (n = 21); for MIC50: read-out: MIC50; for MIC90: read-out: MIC90; for MIC: read-out: MIC range
Protocol: as §1, §2, §3

[4] = system: E. coli clinical isolates (n = 36); experiment: MIC, multidrug-resistant clinical isolates; type: cell-based, Escherichia coli; details: Escherichia coli, E. coli MDR clinical isolates (n = 36); for MIC50: read-out: MIC50; for MIC90: read-out: MIC90
Protocol: as §1, §2, §3

[5] = system: H. influenzae AcrA- mutant; experiment: microbe, parasite or virus in culture; type: cell-based; details: Haemophilus influenzae
Protocol: as §1, §2

Compound	MIC range [1] [µg/mL]	MIC50 [1] [µg/mL]	MIC90 [1] [µg/mL]	MIC (A. baumannii ATCC 19606) [µg/mL]	MIC (S. pyogenes APV00083) [µg/mL]	MIC (S. pyogenes APV00074) [µg/mL]	MIC (A. baumannii APV00473) [µg/mL]	MIC (E. coli 4SI) [µg/mL]	MIC (C. difficile ATCC 700057) [µg/mL]	MIC range [2] [µg/mL]	MIC50 [2] [µg/mL]	MIC90 [2] [µg/mL]	MIC50 [3] [µg/mL]	MIC90 [3] [µg/mL]	MIC [3] [µg/mL]	MIC [4] [µg/mL]	MIC50 [4] [µg/mL]	MIC90 [4] [µg/mL]	MIC [5] [µg/mL]
Cl.O=c1oc2ccc(F)cc2c2[nH]c(CN[C@H]3CC[C@H](n4c(=O)ccc5ncc(F)cc54)CC3)cc12 [Compound 3, 8-fluoro-2-({[trans-4-(7-fluoro-2-oxo-1,5-naphthyridin-1(2H)-yl)cyclohexyl]amino}methyl)[1]benzopyrano[4,3-b]pyrrol-4(1H)-one hydrochloride]	≤0.06	≤ 0.06	≤ 0.06	≤ 0.06	0.12	≤ 0.06	≤ 0.06	0.12	0.25	≤0.06 to 0.12	≤ 0.06	0.12	0.12	0.25	0.06 to 0.25	0.25 to 4	1	2	0.06
O=c1oc2ccc(F)cc2c2[nH]c(CN[C@H]3CC[C@H](n4c(=O)cnc5ncc(F)cc54)CC3)cc12 [Compound 4, 8-fluoro-2-({[trans-4-(7-fluoro-2-oxopyrido[2,3-b]pyrazin-1(2H)-yl)cyclohexyl]amino}methyl)[1]benzopyrano[4,3-b]pyrrol-4(1H)-one (formate salt)]	≤0.06 to 0.5	0.12	0.5	0.5	0.12	0.12	0.12	0.25		≤0.06 to 0.5	0.25	0.5							≤ 0.016
COc1cnc2ncc(=O)n([C@H]3CC[C@H](NCc4cc5c(=O)oc6ccc(F)cc6c5[nH]4)CC3)c2c1 [Compound 5, 8-Fluoro-2-({[trans-4-(7-methoxy-2-oxopyrido[2,3-b]pyrazin-1(2H)-yl)cyclohexyl]amino}methyl)[1]benzopyrano[4,3-b]pyrrol-4(1H)-one hydrochloride]	≤0.06 to 0.5	0.12	0.5	1	≤ 0.06	0.12	0.5	0.5	0.25	0.25 to 1	0.5	1	0.5	1	0.06 to 1	0.5 to 16	2	4	≤ 0.016
